Columns and labels:
[1] = tested on: Human teratocarcinoma NT2; test: Protection against hypoxia, cell viability by trypan blue exclusion; type: cell-based; conditions: 10 mg/ml as PTS formulation, 3 days; 17.5 hours anaerobic, glucose-free
Description: The flasks were sealed in an anaerobic chamber containing Gas Pak Plus gas generator envelopes and were incubated in the anaerobic conditions at 37° C. for 17.5 hours in glucose-free medium. Following the hypoxic treatment the cells were placed again in the complete medium (with and without CoQ10 or vitamin E) and were analysed either immediately (time 0) or were cultured for the additional 24 hr under the normoxic conditions. Cell viability was measured by trypan blue exclusion assay. […]

[2] = tested on: red blood cells (RBC) isolated from Balb/c mice; test: In vitro haemolysis of red blood cells (RBC); type: cell-based, mouse; conditions: 0.3% Triton X-100, 1 h at 37° C., taken as 100% haemolysis (Table 17 reference column)
[3] = tested on: spontaneously hypertensive rats (SHR); test: Ischemia/reperfusion, middle cerebral artery occlusion model (MCAO), TTC staining; type: in vivo, rat; conditions: CoQ10 treatment postischemically
[4] = Storage stability of water-soluble compositions and their aqueous solutions; type: physicochemical; conditions: in water or saline; refrigerated or frozen as stated
[5] = Systemic release of vitamin E following administration of PTS (plasma alpha-tocopherol by HPLC); type: in vivo, Sprague Dawley male rats; conditions: for Concentration of α-tocopherol in rat blood plasma: PTS 50 mg/kg
Description: PTS, dissolved in water (50 mg/ml), was administered to Sprague Dawley male rats (300-350 g) either orally or intravenously at a dose of 50 mg/kg body weight. Heparinized blood samples were collected at 0, 3, 8 and 24 hr following PTS administration. Blood plasma samples were obtained and analyzed for the content of alpha-tocopherol using an HPLC method using a Supercosil DB column and a mobile phase of ethanol:methanol (80:20 v/v) at a flow rate of 1 ml/min. Beckman System Karat software was used for data quantification.

For `Cc1c(C)c2c(c(C)c1O)CC[C@@](C)(CCC[C@H](C)CCC[C@H](C)CCCC(C)C)O2` [Vitamin E, α-(+)-tocopherol], which “percentage of death during the 24 hr recovery period from hypoxia” value [1] is on record?
Its value is “reduced by half”.

For Triton X-100, which “Percentage of lysed Cells” value [2] is on record?
The value was 100.0%.

For `COC1=C(OC)C(=O)C(C/C=C(\C)CC/C=C(\C)CC/C=C(\C)CC/C=C(\C)CC/C=C(\C)CC/C=C(\C)CC/C=C(\C)CC/C=C(\C)CC/C=C(\C)CCC=C(C)C)=C(C)C1=O` [CoQ10, Coenzyme Q10], which “percentage of death during the 24 hr recovery period from hypoxia” value [1] is on record?
Its value is “reduced by half”.

What about the “protective effects against ischemia-induced tissue damage” value [3] of the same compound?
The value was “clearly evident”.

With `CC1=C(/C=C/C(C)=C/C=C/C(C)=C/C=C/C=C(C)/C=C/C=C(C)/C=C/C2=C(C)C(=O)[C@@H](O)CC2(C)C)C(C)(C)C[C@H](O)C1=O` [Astaxanthin] as the compound, how does the “stability of aqueous solutions” value [4] read?
The value was “remained stable for several months”.

Which “Concentration of α-tocopherol in rat blood plasma” value (from here on “Concentration of α-tocopherol”) ([5]; Intravenous administration, 3 hours) does the source give for “polyoxyethanyl-α-tocopheryl sebacate [PTS]” here?
Its value is 18.48 ± 2.40 (n = 3) μg/ml.

And the “Concentration of α-tocopherol” value ([5]; Intravenous administration, 8 hours)?
Its value is 11.19 ± 3.11 (n = 3) μg/ml.

What about the “Concentration of α-tocopherol” value ([5]; Intravenous administration, 24 hours) of the same compound?
Its value is 10.59 ± 1.48 (n = 3) μg/ml.

And the “Concentration of α-tocopherol” value ([5]; Oral administration, 3 hours)?
The value was 8.65 ± 1.40 (n = 3) μg/ml.

And the “Concentration of α-tocopherol” value ([5]; Oral administration, 8 hours)?
The value was 9.33 ± 2.10 (n = 3) μg/ml.

What about the “Concentration of α-tocopherol” value ([5]; Oral administration, 24 hours) of the same compound?
The value was 8.31 ± 0.60 (n = 3) μg/ml.

And the “plasma content of α-tocopherol after PTS (systemic conversion to vitamin E)” value ([5]; oral or intravenous PTS, rat)?
Its value is “Elevated”.
